Results reported in ChEMBL document CHEMBL1145579, “Development of potent and selective small-molecule human Urotensin-II antagonists” (Bioorg Med Chem Lett, 2008).

Target: T1, Urotensin-2 receptor (Homo sapiens, UniProt Q9UKP6)
T1 sequence (Q9UKP6 whole entry): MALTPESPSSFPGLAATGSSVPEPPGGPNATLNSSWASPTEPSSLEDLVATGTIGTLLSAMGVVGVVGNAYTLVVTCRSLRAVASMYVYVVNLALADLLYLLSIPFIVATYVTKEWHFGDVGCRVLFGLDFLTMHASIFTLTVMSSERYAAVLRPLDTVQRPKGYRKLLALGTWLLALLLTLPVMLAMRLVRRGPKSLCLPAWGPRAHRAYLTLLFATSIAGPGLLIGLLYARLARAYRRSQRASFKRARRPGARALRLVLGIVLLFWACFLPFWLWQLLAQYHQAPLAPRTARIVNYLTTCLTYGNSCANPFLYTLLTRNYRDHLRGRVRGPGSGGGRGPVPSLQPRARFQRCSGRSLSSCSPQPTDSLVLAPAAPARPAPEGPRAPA
Test: Displacement of [125I]hU-2 from human recombinant Urotensin 2 receptor expressed in HEK293 cells
Type: cell-based
Settings: not given

Structure (SMILES) | Ki
COCCN(CC(=O)N1CCCC(c2ccccc2)C1CN1CCCC1)c1ccc(Cl)c(Cl)c1 (stereo not given) | 0.008 µM
CN(CC(=O)N1CCCC(c2ccccc2)C1CN1CCCC1)c1ccc(Cl)c(Cl)c1 (racemic) | 0.016 µM
O=C(Cn1c(=O)sc2ccc(Cl)cc21)N1CCCC(c2ccccc2)C1CN1CCOCC1 (racemic) | 0.006 µM
O=C(Cn1c(=O)sc2ccc(Cl)cc21)N1CCCC(c2ccccc2)C1CN1CCCC1 (racemic) | 0.0012 µM
O=C1COc2cc(Cl)c(Cl)cc2N1CC(=O)N1CCCC(c2ccccc2)C1CN1CCCC1 (racemic) | 0.0004 µM
Cc1cc2ncc(=O)n(CC(=O)N3CCCC(c4ccccc4)C3CN3CCOCC3)c2cc1C (racemic) | 0.005 µM
O=C(Cn1c(=O)cnc2cc(Cl)c(Cl)cc21)N1CCCC(c2ccccc2)C1CN1CCOCC1 (racemic) | 0.003 µM
O=C(Cn1c(=O)cnc2cc(Cl)c(Cl)cc21)N1CCCC(c2ccccc2)C1CN1CCCC1 (racemic) | 0.0006 µM

Target: T2, Urotensin-2 receptor (Rattus norvegicus) (UniProt P49684)
T2 sequence (whole entry): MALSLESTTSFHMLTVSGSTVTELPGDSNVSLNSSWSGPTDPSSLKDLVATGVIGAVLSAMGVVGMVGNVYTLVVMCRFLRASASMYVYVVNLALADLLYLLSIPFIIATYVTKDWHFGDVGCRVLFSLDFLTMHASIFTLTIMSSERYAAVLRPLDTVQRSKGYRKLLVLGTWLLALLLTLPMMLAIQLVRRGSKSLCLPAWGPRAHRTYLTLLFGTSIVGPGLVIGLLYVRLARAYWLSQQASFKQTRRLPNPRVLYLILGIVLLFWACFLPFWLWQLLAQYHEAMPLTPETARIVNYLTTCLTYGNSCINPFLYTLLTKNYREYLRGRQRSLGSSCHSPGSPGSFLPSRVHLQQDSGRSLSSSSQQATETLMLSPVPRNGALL
Test: Binding affinity at Urotensin 2 receptor in rat aorta.
Settings: not given

Structure (SMILES) | Kb
CN(CC(=O)N1CCCC(c2ccccc2)C1CN1CCCC1)c1ccc(Cl)c(Cl)c1 (racemic) | 0.028 µM

Target: Cytochrome P450 2D6 (Homo sapiens, UniProt P10635)
Sequence (P10635 whole entry): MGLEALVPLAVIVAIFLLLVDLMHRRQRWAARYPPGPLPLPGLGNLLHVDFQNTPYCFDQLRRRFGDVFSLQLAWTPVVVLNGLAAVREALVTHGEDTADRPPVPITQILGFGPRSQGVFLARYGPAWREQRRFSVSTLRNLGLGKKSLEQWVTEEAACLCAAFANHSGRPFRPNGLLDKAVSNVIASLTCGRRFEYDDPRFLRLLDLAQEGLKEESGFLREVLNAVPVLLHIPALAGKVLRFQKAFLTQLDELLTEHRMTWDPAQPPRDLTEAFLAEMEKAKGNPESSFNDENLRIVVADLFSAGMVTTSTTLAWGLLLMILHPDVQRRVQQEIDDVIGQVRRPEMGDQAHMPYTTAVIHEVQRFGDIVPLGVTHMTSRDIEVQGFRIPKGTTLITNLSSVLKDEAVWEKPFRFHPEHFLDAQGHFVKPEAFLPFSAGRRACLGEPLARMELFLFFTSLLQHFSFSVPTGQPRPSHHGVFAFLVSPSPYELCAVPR
Test: Inhibition of CYP2D6
Type: ADME
Settings: not given

Structure (SMILES) | IC50
COCCN(CC(=O)N1CCCC(c2ccccc2)C1CN1CCCC1)c1ccc(Cl)c(Cl)c1 (stereo not given) | 0.82 µM
CN(CC(=O)N1CCCC(c2ccccc2)C1CN1CCCC1)c1ccc(Cl)c(Cl)c1 (racemic) | 0.75 µM
O=C(Cn1c(=O)sc2ccc(Cl)cc21)N1CCCC(c2ccccc2)C1CN1CCOCC1 (racemic) | 8 µM
O=C(Cn1c(=O)sc2ccc(Cl)cc21)N1CCCC(c2ccccc2)C1CN1CCCC1 (racemic) | 1.7 µM
O=C1COc2cc(Cl)c(Cl)cc2N1CC(=O)N1CCCC(c2ccccc2)C1CN1CCCC1 (racemic) | 1.6 µM
Cc1cc2ncc(=O)n(CC(=O)N3CCCC(c4ccccc4)C3CN3CCOCC3)c2cc1C (racemic) | 6.7 µM
O=C(Cn1c(=O)cnc2cc(Cl)c(Cl)cc21)N1CCCC(c2ccccc2)C1CN1CCOCC1 (racemic) | 21 µM
O=C(Cn1c(=O)cnc2cc(Cl)c(Cl)cc21)N1CCCC(c2ccccc2)C1CN1CCCC1 (racemic) | 2.9 µM

Tested on: not listed separately
Test: Half life in rat at 2 mg/kg, iv and 4 mg/kg, po
Type: ADME, organism-based
Settings: in vivo

Structure (SMILES) | half-life
COCCN(CC(=O)N1CCCC(c2ccccc2)C1CN1CCCC1)c1ccc(Cl)c(Cl)c1 (stereo not given) | 2.8 h
CN(CC(=O)N1CCCC(c2ccccc2)C1CN1CCCC1)c1ccc(Cl)c(Cl)c1 (racemic) | 3.8 h
O=C(Cn1c(=O)sc2ccc(Cl)cc21)N1CCCC(c2ccccc2)C1CN1CCOCC1 (racemic) | 5 h

Tested on: not listed separately
Test: Volume of distribution at steady state in rat at 2 mg/kg, iv and 4 mg/kg, po
Type: ADME, organism-based
Settings: in vivo, read-out: Vdss

Structure (SMILES) | Vd
COCCN(CC(=O)N1CCCC(c2ccccc2)C1CN1CCCC1)c1ccc(Cl)c(Cl)c1 (stereo not given) | 27 L/kg
CN(CC(=O)N1CCCC(c2ccccc2)C1CN1CCCC1)c1ccc(Cl)c(Cl)c1 (racemic) | 23 L/kg
O=C(Cn1c(=O)sc2ccc(Cl)cc21)N1CCCC(c2ccccc2)C1CN1CCOCC1 (racemic) | 26 L/kg

Tested on: not listed separately
Test: Clearance in rat at 2 mg/kg, iv and 4 mg/kg, po
Type: ADME, organism-based
Settings: in vivo

Structure (SMILES) | clearance
COCCN(CC(=O)N1CCCC(c2ccccc2)C1CN1CCCC1)c1ccc(Cl)c(Cl)c1 (stereo not given) | 7.2 L/h/kg
CN(CC(=O)N1CCCC(c2ccccc2)C1CN1CCCC1)c1ccc(Cl)c(Cl)c1 (racemic) | 5.82 L/h/kg
O=C(Cn1c(=O)sc2ccc(Cl)cc21)N1CCCC(c2ccccc2)C1CN1CCOCC1 (racemic) | 7.8 L/h/kg

Tested on: not listed separately
Test: Oral bioavailability in rat at 4 mg/kg, po
Type: ADME, organism-based
Settings: in vivo

Structure (SMILES) | bioavailability
COCCN(CC(=O)N1CCCC(c2ccccc2)C1CN1CCCC1)c1ccc(Cl)c(Cl)c1 (stereo not given) | 30%
CN(CC(=O)N1CCCC(c2ccccc2)C1CN1CCCC1)c1ccc(Cl)c(Cl)c1 (racemic) | 0%
O=C(Cn1c(=O)sc2ccc(Cl)cc21)N1CCCC(c2ccccc2)C1CN1CCOCC1 (racemic) | < 1%

Target: Kappa-type opioid receptor (Homo sapiens, UniProt P41145)
Sequence (P41145 whole entry): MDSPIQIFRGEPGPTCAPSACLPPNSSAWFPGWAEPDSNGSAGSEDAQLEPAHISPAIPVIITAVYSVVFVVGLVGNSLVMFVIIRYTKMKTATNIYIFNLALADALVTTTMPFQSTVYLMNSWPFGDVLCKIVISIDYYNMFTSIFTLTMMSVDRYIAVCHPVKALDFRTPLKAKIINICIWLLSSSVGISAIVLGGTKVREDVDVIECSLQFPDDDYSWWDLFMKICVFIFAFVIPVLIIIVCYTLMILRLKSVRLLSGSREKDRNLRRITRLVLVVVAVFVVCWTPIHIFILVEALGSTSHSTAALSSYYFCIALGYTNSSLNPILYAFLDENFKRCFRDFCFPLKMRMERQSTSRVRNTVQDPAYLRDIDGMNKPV
Test: Agonist activity at kappa opioid receptor
Type: functional
Settings: not given

Structure (SMILES) | EC50
COCCN(CC(=O)N1CCCC(c2ccccc2)C1CN1CCCC1)c1ccc(Cl)c(Cl)c1 (stereo not given) | 1 µM
CN(CC(=O)N1CCCC(c2ccccc2)C1CN1CCCC1)c1ccc(Cl)c(Cl)c1 (racemic) | 3.2 µM
O=C(Cn1c(=O)sc2ccc(Cl)cc21)N1CCCC(c2ccccc2)C1CN1CCOCC1 (racemic) | 7.9 µM
O=C(Cn1c(=O)sc2ccc(Cl)cc21)N1CCCC(c2ccccc2)C1CN1CCCC1 (racemic) | 1.3 µM
O=C1COc2cc(Cl)c(Cl)cc2N1CC(=O)N1CCCC(c2ccccc2)C1CN1CCCC1 (racemic) | 0.5 µM
Cc1cc2ncc(=O)n(CC(=O)N3CCCC(c4ccccc4)C3CN3CCOCC3)c2cc1C (racemic) | 30 µM
O=C(Cn1c(=O)cnc2cc(Cl)c(Cl)cc21)N1CCCC(c2ccccc2)C1CN1CCOCC1 (racemic) | 15 µM
O=C(Cn1c(=O)cnc2cc(Cl)c(Cl)cc21)N1CCCC(c2ccccc2)C1CN1CCCC1 (racemic) | 3.2 µM

Target: not listed separately
Test: Binding affinity at batrachotoxinin sensitive Sodium channel in rat brain
Type: tissue-based
Settings: not given

Structure (SMILES) | Ki
COCCN(CC(=O)N1CCCC(c2ccccc2)C1CN1CCCC1)c1ccc(Cl)c(Cl)c1 (stereo not given) | 0.96 µM
CN(CC(=O)N1CCCC(c2ccccc2)C1CN1CCCC1)c1ccc(Cl)c(Cl)c1 (racemic) | 2.5 µM
O=C(Cn1c(=O)sc2ccc(Cl)cc21)N1CCCC(c2ccccc2)C1CN1CCOCC1 (racemic) | 3.5 µM
O=C(Cn1c(=O)sc2ccc(Cl)cc21)N1CCCC(c2ccccc2)C1CN1CCCC1 (racemic) | 0.33 µM
O=C1COc2cc(Cl)c(Cl)cc2N1CC(=O)N1CCCC(c2ccccc2)C1CN1CCCC1 (racemic) | 0.68 µM
Cc1cc2ncc(=O)n(CC(=O)N3CCCC(c4ccccc4)C3CN3CCOCC3)c2cc1C (racemic) | 6.9 µM
O=C(Cn1c(=O)cnc2cc(Cl)c(Cl)cc21)N1CCCC(c2ccccc2)C1CN1CCOCC1 (racemic) | 18 µM
O=C(Cn1c(=O)cnc2cc(Cl)c(Cl)cc21)N1CCCC(c2ccccc2)C1CN1CCCC1 (racemic) | 0.93 µM

Tested on: not listed separately
Test: Cmax in rat at 2 mg/kg, iv and 4 mg/kg, po
Type: ADME, organism-based
Settings: in vivo

Structure (SMILES) | Cmax
COCCN(CC(=O)N1CCCC(c2ccccc2)C1CN1CCCC1)c1ccc(Cl)c(Cl)c1 (stereo not given) | 0.095 µg/mL
CN(CC(=O)N1CCCC(c2ccccc2)C1CN1CCCC1)c1ccc(Cl)c(Cl)c1 (racemic) | 0.1 µg/mL
O=C(Cn1c(=O)sc2ccc(Cl)cc21)N1CCCC(c2ccccc2)C1CN1CCOCC1 (racemic) | 0.16 µg/mL

Target: Cytochrome P450 3A4 (Homo sapiens, UniProt P08684)
Sequence (P08684 whole entry): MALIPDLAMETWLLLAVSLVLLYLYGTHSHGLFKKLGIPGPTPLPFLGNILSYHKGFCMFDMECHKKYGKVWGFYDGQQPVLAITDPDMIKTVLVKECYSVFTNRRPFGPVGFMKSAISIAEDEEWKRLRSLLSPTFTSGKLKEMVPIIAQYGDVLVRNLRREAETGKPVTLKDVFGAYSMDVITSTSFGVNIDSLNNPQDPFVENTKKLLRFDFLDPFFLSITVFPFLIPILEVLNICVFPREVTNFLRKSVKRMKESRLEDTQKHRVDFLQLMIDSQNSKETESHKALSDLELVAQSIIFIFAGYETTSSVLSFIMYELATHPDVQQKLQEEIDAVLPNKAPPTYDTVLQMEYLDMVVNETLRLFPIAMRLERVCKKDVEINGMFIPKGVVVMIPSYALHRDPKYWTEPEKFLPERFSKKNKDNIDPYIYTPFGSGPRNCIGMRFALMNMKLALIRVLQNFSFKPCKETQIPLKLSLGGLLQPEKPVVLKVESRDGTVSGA
Settings: not given

Structure (SMILES) | IC50
CN(CC(=O)N1CCCC(c2ccccc2)C1CN1CCCC1)c1ccc(Cl)c(Cl)c1 (racemic) | 1.4 µM
O=C(Cn1c(=O)sc2ccc(Cl)cc21)N1CCCC(c2ccccc2)C1CN1CCOCC1 (racemic) | 0.68 µM
O=C(Cn1c(=O)sc2ccc(Cl)cc21)N1CCCC(c2ccccc2)C1CN1CCCC1 (racemic) | 1 µM
O=C1COc2cc(Cl)c(Cl)cc2N1CC(=O)N1CCCC(c2ccccc2)C1CN1CCCC1 (racemic) | 1.8 µM
Cc1cc2ncc(=O)n(CC(=O)N3CCCC(c4ccccc4)C3CN3CCOCC3)c2cc1C (racemic) | 2.7 µM
O=C(Cn1c(=O)cnc2cc(Cl)c(Cl)cc21)N1CCCC(c2ccccc2)C1CN1CCOCC1 (racemic) | 1 µM
O=C(Cn1c(=O)cnc2cc(Cl)c(Cl)cc21)N1CCCC(c2ccccc2)C1CN1CCCC1 (racemic) | 1.2 µM
